We go through twelve compounds from ChEMBL document CHEMBL3352133, “Antimalarial chemotherapy: orally curative artemisinin-derived trioxane dimer esters” (Bioorg Med Chem Lett, 2015).

Series [1] in a line: Stability in pH 2 in acetonitrile and water at 37 degC. The format is physicochemical. To be noted: acetonitrile and water at pH 2, pH 2; read-out: Stability (converted).
In series [2] the test system is Plasmodium berghei. In words: Antimalarial activity Plasmodium berghei ANKA infected in C57BL/6J mouse assessed as suppression of parasitemia at 6 mg/kg, po administered as single dose combined with 18 mg/kg mefloquine hydrochloride measured on day 3 after innfection. Type of series: functional.
The test system of series [3] is Plasmodium berghei. In words: Antimalarial activity Plasmodium berghei ANKA infected in C57BL/6J mouse assessed as mouse survival at 6 mg/kg, po administered as single dose combined with 18 mg/kg mefloquine hydrochloride. The format is functional.
The nature of series [4]: Lipophilicity, logP of the compound. The format is physicochemical. To be noted: octanol/water.
The subject of series [5] is Plasmodium. In words: Antimalarial activity Plasmodium. The format is functional.

pIC50: −log10 of the molar value.

The term logP denotes a log measure of how a compound divides between an organic and an aqueous phase. Take `C[C@H]1[C@@H](CC(COC(=O)c2ccc(Cl)nc2Cl)C[C@H]2O[C@@H]3O[C@@]4(C)CC[C@H]5[C@H](C)CC[C@@H]([C@H]2C)[C@@]35OO4)O[C@@H]2O[C@@]3(C)CC[C@H]4[C@H](C)CC[C@@H]1[C@@]24OO3`: in series [1], the half-life was 96 h. Moreover, the Activity in series [2] is on record as more than 99.9%. Besides, the Survival in series [3] came out at 30 days. Further, the logP in series [4] is reported as 9.5.
For the compound `Cc1cc(C(=O)OCC(C[C@H]2O[C@@H]3O[C@@]4(C)CC[C@H]5[C@H](C)CC[C@@H]([C@H]2C)[C@@]35OO4)C[C@H]2O[C@@H]3O[C@@]4(C)CC[C@H]5[C@H](C)CC[C@@H]([C@H]2C)[C@@]35OO4)cc(C)n1`, the Activity in series [2] is listed as more than 99.9%. In addition, in series [3], the Survival worked out at 25.8 days. Also, the logP in series [4] (read-out: logP) is 8.1.
Take `C[C@H]1[C@@H](CC(COC(=O)c2cc(Cl)cc(Cl)c2)C[C@H]2O[C@@H]3O[C@@]4(C)CC[C@H]5[C@H](C)CC[C@@H]([C@H]2C)[C@@]35OO4)O[C@@H]2O[C@@]3(C)CC[C@H]4[C@H](C)CC[C@@H]1[C@@]24OO3`: the half-life in series [1] is 96 h. Moreover, in series [2], the Activity is reported as more than 99.9%. In series [3], the Survival came to 30 days. For the same compound, the logP in series [4] stood at 10.2.
For the compound `C[C@H]1[C@@H](CC(CO)C[C@H]2O[C@@H]3O[C@@]4(C)CC[C@H]5[C@H](C)CC[C@@H]([C@H]2C)[C@@]35OO4)O[C@@H]2O[C@@]3(C)CC[C@H]4[C@H](C)CC[C@@H]1[C@@]24OO3` (stereo not given in full), the Activity in series [2] was more than 99.9%. Also, the Survival in series [3] came to 26 days.
With `C[C@H]1[C@@H](CC(COC(=O)c2cc(Cl)nc(Cl)c2)C[C@H]2O[C@@H]3O[C@@]4(C)CC[C@H]5[C@H](C)CC[C@@H]([C@H]2C)[C@@]35OO4)O[C@@H]2O[C@@]3(C)CC[C@H]4[C@H](C)CC[C@@H]1[C@@]24OO3`, the Activity in series [2] is on record as more than 99.9%. In series [3], the Survival was determined as 25.8 days. In series [4], the lipophilicity (logP) worked out at 9.5.
Turning to `Cc1cc(C(=O)OCC(C[C@H]2O[C@@H]3O[C@@]4(C)CC[C@H]5[C@H](C)CC[C@@H]([C@H]2C)[C@@]35OO4)C[C@H]2O[C@@H]3O[C@@]4(C)CC[C@H]5[C@H](C)CC[C@@H]([C@H]2C)[C@@]35OO4)cc(Cl)n1`, the Activity in series [2] is recorded as more than 99.9%. For the same compound, the Survival in series [3] worked out at 28.5 days. Also, the logP in series [4] was determined as 9.5.
As for `C[C@H]1[C@@H](CC(COC(=O)c2cc(F)nc(F)c2)C[C@H]2O[C@@H]3O[C@@]4(C)CC[C@H]5[C@H](C)CC[C@@H]([C@H]2C)[C@@]35OO4)O[C@@H]2O[C@@]3(C)CC[C@H]4[C@H](C)CC[C@@H]1[C@@]24OO3`, in series [2], the Activity is on record as more than 99.9%. In series [3], the Survival came out at 23.5 days. In addition, the lipophilicity (logP) in series [4] (read-out: logP) worked out at 8.9.
By pIC50 is commonly meant −log10 of the IC50, conventionally taken in molar units. Read a high pIC50 as a small IC50. `C[C@@H]1CC[C@H]2[C@@H](C)C(=O)O[C@@H]3O[C@@]4(C)CC[C@@H]1[C@]32OO4` [ARTEMISININ] showed a pIC50 in series [5] of 8.05.
As to `C[C@H]1[C@@H](CC(COC(=O)c2ccnc(Cl)c2Cl)C[C@H]2O[C@@H]3O[C@@]4(C)CC[C@H]5[C@H](C)CC[C@@H]([C@H]2C)[C@@]35OO4)O[C@@H]2O[C@@]3(C)CC[C@H]4[C@H](C)CC[C@@H]1[C@@]24OO3`, the Activity in series [2] was more than 99.9%. Besides, the Survival in series [3] is 26 days. Also, the logP in series [4] amounted to 9.2.
In the case of `C[C@H]1[C@@H](CC(COC(=O)c2ccncc2)C[C@H]2O[C@@H]3O[C@@]4(C)CC[C@H]5[C@H](C)CC[C@@H]([C@H]2C)[C@@]35OO4)O[C@@H]2O[C@@]3(C)CC[C@H]4[C@H](C)CC[C@@H]1[C@@]24OO3`, the Activity in series [2] is reported as more than 99.9%. Further, the Survival in series [3] turned out to be 24.3 days. The compound also gave a pIC50 in series [5] of 8.77. Moreover, the logP in series [4] (read-out: logP) turned out to be 7.8.
`C[C@H]1[C@@H](CC(COC(=O)c2cc(F)cc(F)c2)C[C@H]2O[C@@H]3O[C@@]4(C)CC[C@H]5[C@H](C)CC[C@@H]([C@H]2C)[C@@]35OO4)O[C@@H]2O[C@@]3(C)CC[C@H]4[C@H](C)CC[C@@H]1[C@@]24OO3`: the Activity in series [2] is more than 99.9%. For the same compound, the Survival in series [3] came to 29 days. This compound also registered a logP in series [4] of 9.3.
For the compound `CO[C@H]1O[C@@H]2O[C@@]3(C)CC[C@H]4[C@H](C)CC[C@@H]([C@H]1C)[C@@]24OO3` [ARTEMETHER], the Activity in series [2] is reported as more than 99.9%. The Survival in series [3] was 20.8 days.
